The source of these data is PMC5511785 (Journal of pharmaceutical sciences, 2017).

Series [1] relates to GFP-OATP1B3. It is filed as cell-based, human.
Series [2] deals with T1, OATP1B1 (Homo sapiens, UniProt Q9Y6L6).
T1 sequence (Q9Y6L6 1-691): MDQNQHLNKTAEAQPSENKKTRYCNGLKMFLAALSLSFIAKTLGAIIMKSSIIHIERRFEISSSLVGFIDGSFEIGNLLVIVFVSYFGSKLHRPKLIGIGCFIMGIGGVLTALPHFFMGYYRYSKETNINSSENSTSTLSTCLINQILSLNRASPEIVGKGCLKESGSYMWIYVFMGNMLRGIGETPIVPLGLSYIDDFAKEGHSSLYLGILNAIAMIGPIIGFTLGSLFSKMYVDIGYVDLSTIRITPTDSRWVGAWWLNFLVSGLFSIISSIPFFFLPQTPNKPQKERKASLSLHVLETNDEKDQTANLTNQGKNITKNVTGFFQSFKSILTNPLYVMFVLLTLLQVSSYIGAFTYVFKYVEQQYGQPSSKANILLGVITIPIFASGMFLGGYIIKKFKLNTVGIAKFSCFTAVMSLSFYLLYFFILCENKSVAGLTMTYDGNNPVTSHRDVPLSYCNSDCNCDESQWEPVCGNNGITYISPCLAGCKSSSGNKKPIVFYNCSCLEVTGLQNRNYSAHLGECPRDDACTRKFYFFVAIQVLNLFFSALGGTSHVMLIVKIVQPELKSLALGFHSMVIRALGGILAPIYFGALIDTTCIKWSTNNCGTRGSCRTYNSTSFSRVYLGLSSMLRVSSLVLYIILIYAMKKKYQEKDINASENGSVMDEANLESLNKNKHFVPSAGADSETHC
Description: cell-based. To be noted: [3H]-E217βG 1 μM, 2 min, HEK293-OATP1B1.

Series [3] deals with OATP1B1. Briefly: Immunoblot of total OATP1B1 protein in HEK293-OATP1B1 cells. It is filed as cell-based, human. The following applies: 10 μM, 1 h.
The test system of series [4] is HEK293-OATP1B1 and -1B3 cells. To be noted: 1 h treatment; rifampicin up to 25 μM, dasatinib up to 20 μM.
Series [5] relates to OATP1B1. To be noted: co-incubation with 10 μM; cited from earlier work.
Series [6] deals with T1, OATP1B1.
Series [7] deals with OATP1B3. Briefly: Immunoblot of total OATP1B3 protein in HEK293-OATP1B3 cells. Format: cell-based, human. The following applies: 10 μM, 1 h. (In general: Immunoblotting shows a protein as a band on a membrane.)
The conditions of series [8]: co-administration of dasatinib with simvastatin; cited from earlier work.
The conditions of series [9]: cited from earlier work.
The conditions of series [10]: cited from earlier work. This is another data set of the same source.
In series [11] the test system is GFP-OATP1B1. Format: cell-based, human.
Series [12] addresses T1, OATP1B1. Briefly: OATP1B1-mediated [3H]-E1S accumulation. It is filed as cell-based. The following applies: 1 μM, 30 min or 1 h.
In series [13] the target is T2, OATP1B3 (Homo sapiens, UniProt Q9NPD5).
T2 sequence (Q9NPD5 1-702): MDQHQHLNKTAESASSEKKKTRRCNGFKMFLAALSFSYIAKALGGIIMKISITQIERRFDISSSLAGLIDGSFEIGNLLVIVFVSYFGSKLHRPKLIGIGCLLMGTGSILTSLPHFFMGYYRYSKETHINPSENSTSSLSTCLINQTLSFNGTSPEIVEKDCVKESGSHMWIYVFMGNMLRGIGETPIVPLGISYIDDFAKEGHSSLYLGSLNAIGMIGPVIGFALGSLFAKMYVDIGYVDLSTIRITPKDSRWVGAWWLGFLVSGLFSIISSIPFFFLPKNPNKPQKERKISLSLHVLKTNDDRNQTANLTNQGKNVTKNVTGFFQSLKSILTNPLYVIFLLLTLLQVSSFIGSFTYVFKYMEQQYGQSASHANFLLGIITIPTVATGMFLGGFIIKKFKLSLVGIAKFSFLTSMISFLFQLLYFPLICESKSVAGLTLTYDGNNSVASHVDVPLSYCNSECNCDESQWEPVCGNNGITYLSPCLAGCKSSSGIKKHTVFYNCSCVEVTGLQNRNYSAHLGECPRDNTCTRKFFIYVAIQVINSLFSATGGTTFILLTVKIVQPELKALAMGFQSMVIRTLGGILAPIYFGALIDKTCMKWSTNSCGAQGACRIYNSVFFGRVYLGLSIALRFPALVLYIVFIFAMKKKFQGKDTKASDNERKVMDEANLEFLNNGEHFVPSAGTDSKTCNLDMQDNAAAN
Description: cell-based. The following applies: [3H]-E217βG 1 μM, 2 min, HEK293-OATP1B3.

Series [14] in a line: Estimated maximum unbound inhibitor concentration at the inlet to the liver. Also on record: species or system human. To be noted: Supplemental Table S2.
Series [15] has as its target T3, GFP-OATP1B3 (Homo sapiens, UniProt Q9NPD5).
T3 sequence (Q9NPD5 1-702): T2 sequence (Q9NPD5 1-702)
Briefly: [3H]-E217βG accumulation in HEK293-GFP-OATP1B3 cells.

Series [16] has as its system OATP1B1. To be noted: 1–25 μM; cited from earlier work.
Series [17] has as its target T1, OATP1B1. Briefly: OATP1B1-mediated [3H]-pitavastatin accumulation. Format: cell-based. To be noted: 10 μM, 1 h pre-incubation.
For series [18], the target named is T4, GFP-OATP1B1 (Homo sapiens, UniProt Q9Y6L6).
T4 sequence (Q9Y6L6 1-691): T1 sequence (Q9Y6L6 1-691)
Briefly: [3H]-E217βG accumulation in HEK293-GFP-OATP1B1 cells.

In series [19] the target is T2, OATP1B3.
The mark [20] stands for this setting: 20 μM, up to at least 1 h (data not shown).
Where [21] appears, read: IC50, co-incubation, without pretreatment.
The mark [22] stands for this setting: IC50, pre+co-incubation (1 h pretreatment).
[23] abbreviates: substrate kinetics, vehicle control pretreatment, mean ± SD, n=3.
The mark [24] stands for this setting: unlabeled E217βG 1–30 μM, 0.5 and 1 h.

Molecules are shown by their SMILES. Like-named read-outs stand apart in the source and are kept apart here.

Usually IC50 stands for the concentration at which inhibition is half-maximal. The term Vss denotes the apparent volume that relates the amount in the body to the concentration in plasma or blood. Take `Cc1nc(Nc2ncc(C(=O)Nc3c(C)cccc3Cl)s2)cc(N2CCN(CCO)CC2)n1` [Dasatinib]: in the series with GFP-OATP1B3 [1] (setting [20]), the “Plasma membrane localization of GFP-OATP1B3” value was “did not cause an obvious change”. In addition, on OATP1B1 [2] (setting [21]), the IC50 amounted to 4810 ± 1700 nM. Moreover, the IC50 on OATP1B1 [2] (setting [22]) came to 2330 ± 860 nM. Further, the “Total protein level of OATP1B1 vs vehicle control” value with OATP1B1 [3] is reported as “similar”. The LDH cytotoxicity entry in [4] is “negligible toxicity”. Moreover, in the series with OATP1B1 [5], the “Decrease of OATP1B1-mediated [3H]-E217βG transport” value was ~ 70%. Further, the “Effect of pretreatment on OATP1B1-mediated [3H]-E217βG accumulation” value on OATP1B1 [6] (5 - 20 μM for 0.5 and 1 h) is reported as “significantly decreased”. Further, in the series on OATP1B3 [7], the “Total protein level of OATP1B3 vs vehicle control” value is “similar”. Moreover, in [8], the “Increase of AUC of simvastatin” value was 20% and the “Increase of AUC of simvastatin acid” value is 27%. Also, the ka in series [9] (first-order absorption rate constant) is 6 h⁻¹. The fa in series [9] (fraction available for absorption from dosage form, meta-analysis) was 0.781. Further, in [9] (from allometric scaling), the Vss was 4.2 L/kg. For the same compound, the CLPO in [9] (observed value (CV% 106.5)) is listed as 449.4 L/h. The CLR in [9] (observed value) was 0.4 L/h. Moreover, in [10], the pKa1 is 6.8 and the pKa2 is listed as 10.8. Besides, the “Log PO:W” value in [10] (neutral species octanol:buffer partition coefficient) is given as 1.8. Also, the “Plasma membrane localization of GFP-OATP1B1” value with GFP-OATP1B1 [11] (setting [20]) is given as “did not cause an obvious change”.
Take `CO[C@H]1/C=C/O[C@@]2(C)Oc3c(C)c(O)c4c(O)c(c(/C=N/N5CCN(C)CC5)c(O)c4c3C2=O)NC(=O)/C(C)=C\C=C\[C@H](C)[C@H](O)[C@@H](C)[C@@H](O)[C@@H](C)[C@H](OC(C)=O)[C@@H]1C` [Rifampicin]: the “Effect of pretreatment on OATP1B1-mediated [3H]-E1S transport” value on OATP1B1 [12] is “did not affect”. For the same compound, the “Plasma membrane localization of GFP-OATP1B3” value in the series on GFP-OATP1B3 [1] (10 μM, 1–61 min) is “primarily localized at the plasma membrane”. In addition, the IC50 on OATP1B1 [2] (setting [21]) worked out at 740 ± 80 nM; at OATP1B1 [2] (setting [22]), 240 ± 30 nM; on OATP1B3 [13] (setting [21]), 260 ± 30 nM; at OATP1B3 [13] (setting [22]), 100 ± 10 nM. For the same compound, the “Total protein level of OATP1B1 vs vehicle control” value in the series with OATP1B1 [3] was “similar”. The “Effect of pre-incubation on OATP1B1-mediated [3H]-E217βG transport” value at OATP1B1 [6] (1 – 25 μM for 0.5 h and 0.5 – 25 μM for 1 h, washed) was “significantly decreased”. In addition, at OATP1B1 [6] (pretreatment 10 μM, 1 h), the “Change of Km of OATP1B1-mediated E217βG transport vs control” value is given as ~ 1.5 fold. Further, on OATP1B1 [6] (pretreatment 10 μM, 1 h), the “Decrease of Vmax of OATP1B1-mediated E217βG transport vs control” value is recorded as ~ 3.5 fold. In addition, the “Maximum possible unbound concentration at the inlet to the liver (Iu,in,max)” value in series [14] is 10.7 µM. Besides, the “Total protein level of OATP1B3 vs vehicle control” value in the series on OATP1B3 [7] was “similar”. Also, on GFP-OATP1B3 [15] (10 μM for 0.5 and 1 h), the “Effect of pretreatment on [3H]-E217βG accumulation in HEK293-GFP-OATP1B3” value is on record as “significantly decreased”. Also, the “Effect of pre-incubation on OATP1B1-mediated [3H]-E1S transport” value in the series on OATP1B1 [16] is “did not significantly affect”. Also, at OATP1B1 [17], the “Effect of pre-incubation on OATP1B1-mediated [3H]-pitavastatin accumulation” value is listed as “significantly decreased”. The “Effect of pretreatment on [3H]-E217βG accumulation in HEK293-GFP-OATP1B1” value on GFP-OATP1B1 [18] (10 μM for 0.5 and 1 h) was “significantly decreased”. Besides, the “Plasma membrane localization of GFP-OATP1B1” value in the series with GFP-OATP1B1 [11] (10 μM, 1–61 min) is recorded as “primarily localized at the plasma membrane”.
Regarding `C[C@]12CC[C@@H]3c4ccc(O)cc4CC[C@H]3[C@@H]1CC[C@@H]2O[C@@H]1O[C@H](C(=O)O)[C@@H](O)[C@H](O)[C@H]1O` [E217βG, estradiol 17β-D-glucuronide], the “Vmax of E217βG transport mediated by OATP1B1” value on OATP1B1 [6] (setting [23]) was determined as 55.2 ± 1.6 pmol/mg protein/min. In addition, at OATP1B1 [6] (setting [24]), the “Effect of pretreatment on OATP1B1-mediated transport of [3H]-E217βG” value was “only slightly decreases or has no effect”. The “[3H]-E217βG accumulation vs HEK293-Mock cells” value on GFP-OATP1B3 [15] (1 μM, 2 min, HEK293-GFP-OATP1B3 (data not shown)) is ~ 34 fold; at GFP-OATP1B1 [18] (1 μM, 2 min, HEK293-GFP-OATP1B1 (data not shown)) it was 390 fold. The “Vmax of E217βG transport mediated by OATP1B3” value on OATP1B3 [19] (setting [23]) came to 15.8 ± 1.6 pmol/mg protein/min. In addition, the “Effect of pretreatment on OATP1B3-mediated transport of [3H]-E217βG” value on OATP1B3 [19] (setting [24]) is listed as “only slightly decreases or has no effect”.
